Experimental data published in patent US20110070329A1, “1-tert-Butylcyclohexanecarboxamide and uses thereof as cooling compounds” (priority 2009, published 2011).
“Also recorded” adds a separate entry of the source.

Key:
[1] = Flavor evaluation, tasted in water at 10 ppm
Excerpt: After expectorating, cooling began to build over time. The residual cooling (approx. five minutes) after expectorating earned a rating of 4 while when the cooler was in mouth, it was rated a 1 (on a scale of 1 to 9) when tasted in water at 10 ppm.

[2] = Evaluation of cooler mixed with fondant
Excerpt: In this example, Structure III was mixed with a fondant, commercially available from Confectionary House, Troy, N.Y., at levels listed in Table 1.

[3] = Chewing gum evaluation by trained descriptive analysis panel; settings: level 0.20%
Description: The following gum base formulation was prepared: […]
Structure III by itself at levels detailed in the Table III was blended with the gum base in a Sigma mixer. The resultant chewing gum blend was then manufactured into strips 1 inch in width and 0.1 inches in thickness. These strips were cut into lengths of 3 inches each.
Samples were profiled by a highly trained descriptive analysis panel. The ballot consisted of the following terms: Total impact, total mint, cooling-mouth closed, cooling—breath in, nasal cooling—breathe in, throat irritation, bitterness, tongue irritation, numbing. Each attribute was rated at discrete time points including 1 minute, 3 minutes, 5 minutes, 10 minutes, 20 minutes, and 30 minutes.

| SMILES | flavor properties when tasted in water [1] | COMMENTS (cooling evaluation in fondant) ([2]; 50 ppm) | COMMENTS (cooling evaluation in fondant) ([2]; 100 ppm) | residual cooling rating after expectorating ([1]; approx. five minutes after expectorating, scale of 1 to 9) | cooling rating when the cooler was in mouth ([1]; in mouth, scale of 1 to 9) | Time and Evaluation (chewing gum) ([3]; 0-1 minute) | Time and Evaluation (chewing gum) ([3]; 1-3 minutes) | Time and Evaluation (chewing gum) ([3]; 3-5 minutes) | Time and Evaluation (chewing gum) ([3]; 5-10 minutes) | Time and Evaluation (chewing gum) ([3]; 10-20 minutes) | Time and Evaluation (chewing gum) ([3]; 20-30 minutes) |
| --- | --- | --- | --- | --- | --- | --- | --- | --- | --- | --- | --- |
| CC(C)(C)C1(C(=O)Nc2ccc(CC#N)cc2)CCCCC1 [Structure I, 1-tert-butyl-N-[4-(cyanomethyl)phenyl]cyclohexanecarboxamide] | bitter upfront, intense cooling upon expectorating | – | – | – | – | – | – | – | – | – | – |
| CC(C)(C)C1(C(=O)NCCc2ccccn2)CCCCC1 [Structure II, 1-tert-butyl-N-[2-(pyridine-2-yl)ethyl]cyclohexanecarboxamide] | honey, cream soda, slightly bitter, cooling flavor properties after about thirty seconds | – | – | – | – | – | – | – | – | – | – |
| CC(C)(C)C1(C(=O)NCc2ccccn2)CCCCC1 [Structure III, 1-tert-butyl-N-[(pyridine-2-yl)methyl]cyclohexanecarboxamide] | did not have much cooling except on breath-in. After expectorating, cooling began to build over time | Slight cooling but quick onset, fills mouth | Quick onset slight bitterness perceived | 4 | 1 | Sweet, citrus. Not cooling slightly bitter | Cooling is perceivable, but weak. | bitterness., cooling very weak; also recorded: More cooling. Cooling when breathing. Little | Cooling is all over the mouth. Some bitterness; also recorded: is perceivable, very slight cooling again very; also recorded: weak | Cooling is all over the mouth but not very; also recorded: intensive., little to no cooling | More bitterness is perceivable. Cooling is; also recorded: moderate and slowly starting to decline; also recorded: little to no cooling |
